In patent US11149008B2, “Sulfamide derivatives and preparation method and use thereof” (HitGen Ltd., priority 2015, dated 2021) one finds EC50 data, which are given here for one molecule.

One test deals with HepG2 cells. The experiment in a line: Cell growth inhibition measurement (CCK-8), HepG2. The class given is cell-based. Conditions: Homo sapiens, HepG2, 72 h, highest EC50 measured during one or multiple operations, read-out: Inhibition activity against cancer cells, HepG2 (EC50). An excerpt:
(§1) A HepG2 cell strain and an HCT-116 cell strain were purchased from Shanghai Institutes for Biological Sciences; a DMEM high-sugar culture medium and an MEM culture medium were purchased from Hyclone; fetal calf serum was purchased from Gibco; trypsin was purchased from Invitrogen Shanghai; a CCK-8 kit was purchased from Beyotime Institute of Biotechnology; and, the remaining cell culture mediums and other consumables were purchased from Corning China.
(§2) HepG2 cells and HCT-116 cells in the logarithmic growth phase were digested by trypsin. After the counting of uniform cell suspension, the cell density was adjusted as 1500 cells/well by a culture medium containing 10% serum. The cells were re-inoculated to a 96-well cell culture plate, and cultured to a volume of 200 μL at 37° C. in an incubator containing 5% CO2. The cells could be tested after being cultured for 24 h.
(§3) The cells cultured for 24 h were taken out from the incubator. The culture liquid in the well plate was sucked out, and 200 μL of compound solution prepared in the culture medium containing 10% fetal calf serum was added in each well. Five parallel mediums were provided for each concentration, and a DMSO culture medium was used as negative control. The culture mediums were cultured for 72 h at 37° C. in an incubator containing 5% CO2, and CCK-8 detection was performed.
(§4) A serum-free culture medium and CCK-8 solution were prepared, and CCK-8 working solution was prepared at a ratio of 10:1 (this process should be performed in dark place).
(§5) The cells cultured for 72 h were taken out from the incubator. The culture liquid in the well plate was sucked out, and 120 μL of the CCK-8 working solution was added in each well. A well plate without cells was also added with 120 μL of the CCK-8 working solution to serve as blank control. The well plates were cultured for 1 h at 37° C. in an incubator containing 5% CO2 (this process should be performed in dark place).
(§6) The well plates were taken out from the incubator, 100 μL of solution in each well was sucked out and added in a new 96-well plate, and the absorbance was measured at 450 nm (this process should be performed in dark place).
(§7) where Tx is the absorbance of the CCK-8 after the compound acts for 72 h;
(§8) C is the absorbance of the CCK-8 after the negative control wells are cultured for 72 h; and
(§9) B is the absorbance of the CCK-8 in the blank control wells.
(§10) The test results of the compounds prepared according to the embodiments during the measurement are shown in Table 3, wherein the measured highest EC50 of the compounds during one operation or multiple operations is classified according to the following description: […]

Another test concerns HCT-116 cells. The experiment in a line: Cell growth inhibition measurement (CCK-8), HCT-116. The class given is cell-based. To be noted: Homo sapiens, HCT-116, 72 h, highest EC50 measured during one or multiple operations, read-out: Inhibition activity against cancer cells, HCT-116 (EC50).
Source text: as §1, §2, §3, §4, §5, §6, §7, §8, §9, §10

For the molecule `CN1CCN(c2ccc(-c3ccc(S(=O)(=O)N4CC=C(C(=O)NO)CC4)cc3)cc2)CC1` [Compound 29, N-hydroxyl-1-((4′-(4-methylpiperazinyl)-[1,1′-biphenyl]-4-yl)sulfonyl)-1,2,3,6-tetrahydropyridine-4-formamide], the concentration for a half-maximal effect (EC50) in the test on HepG2 cells and with HCT-116 cells was under 100 nM each time.
